Results from patent US20150224089A1, “COMBINATIONS OF IKKi/TBK1 INHIBITORS WITH BETA ADRENERGIC AGONISTS OR SYMPATHETIC NERVOUS SYSTEM ACTIVATORS” (THE REGENTS OF THE UNIVERSITY OF MICHIGAN, priority 2014, published 2015).

Legend:
diet-induced obese mice = assay: Serum FFA and glycerol after CL-316,243 injection in ND- or HFD-fed mice; assay type: in vivo; conditions: amlexanox-treated HFD mice compared to vehicle-treated HFD-fed mice; oral gavage 4 days
Procedure: (§1) (A) Fold increase in serum FFA (left panel) and glycerol (right panel) levels 15 min after CL-316,243 injection in ND- or HFD-fed mice treated with amlexanox or vehicle control for 4 days. (B) Glycerol release from ex vivo epididymal (left panel) and inguinal (right panel) WATs after 1 hr pretreatment with amlexanox or vehicle. CL-316,243 treatment was started at time zero. (C) Immunoblots in inguinal WAT lysates from FIG. 5B after 60 min of CL-316,243 treatment. (D) cAMP levels in epididymal WAT 20 min after CL-316,243 (CL) or saline control injection in HFD-fed mice treated with amlexanox or vehicle control for 4 days. (E) Immunoblots in epididymal WAT 5 min after CL-316,243 or saline control injection in HFD-fed mice treated with amlexanox or vehicle control for 4 days. (F) Relative oxygen comsumption of mice in each treatment group.
To test the functional importance of the noncanonical IKKs in maintaining energy balance in vivo, experiments were conducted during development of embodiments of the present invention to investigate whether the administration of a selective inhibitor of IKKε and TBK1, amlexanox, can reverse diet-induced catecholamine resistance in rodentsMice were fed a high fat or normal diet, treated them with amlexanox by oral gavage for 4 days (prior to the point when weight loss is seen), and then gave a single intraperitoneal (IP) injection of the β3-adrenergic agonist CL-316,243. Injection of CL-316,243 stimulated a threefold increase in serum FFA and glycerol levels in both vehicle and amlexanox-treated mice on normal diet (ND).

[1] = tested on: white adipose tissues from mice on a HFD; assay: Glycerol release from ex vivo epididymal and inguinal white adipose tissue; conditions: ex vivo 1 hr pretreatment with amlexanox, CL-316,243 treatment, more pronounced in inguinal depot
Procedure: as §1, with “group. […]” for “group.”

inguinal WAT = assay: Immunoblots in ex vivo inguinal WAT lysates after CL-316,243 treatment; design: species or system mice
Procedure: as §1, with “group. […]” for “group.”

[2] = tested on: epididymal adipose tissue; assay: cAMP levels in epididymal WAT after CL-316,243 injection in HFD-fed mice; assay type: in vivo; conditions: HFD mice pretreated with amlexanox 4 days; 20 min after CL-316,243 IP injection
Procedure: as §1
(§2) To examine whether inhibition of TBK1 and IKKε with amlexanox reverses resistance to catecholamineinduced lipolysis in vivo by increasing stimulation of cAMP production, cAMP levels we measured in epididymal adipose tissue from mice on HFD after CL-316,243 IP injection. Levels of cAMP were increased after CL-316,243 IP injection in mice on HFD pretreated with amlexanox (FIG. 5D).

epididymal WAT = assay: Immunoblots (HSL phosphorylation) in epididymal WAT after CL-316,243 injection in HFD-fed mice; assay type: in vivo; conditions: HFD-fed mice pretreated with amlexanox 4 days; 5 min after CL-316,243 IP injection
Procedure: as §1, §2

3T3-L1 adipocytes = assay: Ucp1 gene expression in 3T3-L1 adipocytes; assay type: cell-based; conditions: long-term treatment with TNFα
Procedure: (A) Fold increase in Ucp1 expression in 3T3-L1 adipocytes expressing empty vector, Flag-IKKε, or Flag-IKKε K38A following treatment with or without 10 μM ISO (black bars) or 10 μM CL-316,243 (CL, gray bars) for 4 hr. (B) Glycerol release from 3T3-L1 adipocytes expressing empty vector (white bars), Flag-IKKε (black bars), or Flag-IKKε K38A (gray bars) treated with or without 10 μM ISO or 10 μM CL. (C) Immunoblots of whole cell lysates from FIG. 1B. Results were replicated in triplicate. D.E. stands for dark exposure and L.E. stands for light exposure. (D) Immunoblots of whole cell lysates from 3T3-L1 adipocytes expressing empty vector or Flag-IKKε treated with or without 50 μM FSK for 15 min. (E) cAMP levels from 3T3-L1 adipocytes expressing empty vector, Flag-IKKε, or Flag-IKKε K38A treated with or without 10 μM ISO or 50 μM FSK for 15 min.
Sympathetic activation of adipose tissue is involved in maintaining energy balance by stimulating lipolysis and fat oxidation (Coppack et al., 1994; Langin, 2006; Festuccia et al., 2011; herein incorporated by reference in their entireties). Activation of β-adrenergic signaling by either β-adrenergic agonists or cold exposure in white and brown adipose tissue initiates a cascade of events through cyclic AMP (cAMP), culminating in the transcriptional upregulation of Ucp1, which results in increased proton leak and energy expenditure (Himms-Hagen et al., 2000; Cao et al., 2004; Yehuda-Shnaidman et al., 2010; herein incorporated by reference in their entireties). […] This effect was further analyzed by overexpressing IKKε in 3T3-L1 adipocytes and examining Ucp1 gene expression after treatment with the non-selective β-adrenergic agonist, isoproterenol (ISO), or the β3-adrenergic agonist, CL-316,243. Fold difference in Ucp1 gene expression was calculated by normalization of relative Ucp1 mRNA levels in treated relative to control samples. […] The induction of Ucp1 gene expression in response to ISO or CL-316,243 was blunted when WT IKKε was overexpressed in these cells. […]

Compound | fold increase in serum glycerol levels after CL-316,243 (diet-induced obese mice) | glycerol release from white adipose tissues [1] | phosphorylation of TBK1 at Ser172 (inguinal WAT; ex vivo amlexanox pretreatment, relief of feedback inhibition) | phosphorylation of HSL, perilipin and PKA substrate motif proteins in response to CL-316,243 (inguinal WAT; inguinal fat depot, amlexanox pretreatment vs vehicle-pretreated, 60 min CL-316,243) | cAMP levels in epididymal adipose tissue [2] | HSL phosphorylation in epididymal WAT (epididymal WAT) | induction of Ucp1 gene expression in response to β-adrenergic stimuli (3T3-L1 adipocytes)
CC(C)c1ccc2oc3nc(N)c(C(=O)O)cc3c(=O)c2c1 [amlexanox, 2-amino-7-isopropyl-1-azaxanthone-3-carboxylic acid; 2-amino-7-isopropyl-5-oxo-5H-chromeno[2,3-b]pyridine-3-carboxylic acid] | significantly higher | enhanced glycerol release | increased | increased phosphorylation | increased | increased | –
TNFα | – | – | – | – | – | – | repressed
